{
  "source": "patent US11590119B2",
  "about": "“(S)-2-(1-(5-(cyclohexylcarbamoyl)-6-(propylthio)pyridin-2-yl)piperidin-3-yl)acetic acid for use in medicine” (University of Leeds, priority 2019, dated 2023)",
  "key": {"skin wounds": {"system": "skin wounds", "experiment": "Phase II trial in T2DM: wound gap diameter of punch biopsy wounds by OCT", "assay_type": "in vivo, human", "source_text": "FIG. 13: Wound healing in placebo (PBO) and AZD4017 (AZD) treated cohorts as evidenced by wound gap diameter of wounds inflicted at days 0 and 28 at days 2 and 30, respectively. Confidence intervals for measurements are provided to right.\nBoth biopsies from visit 1 (day 0) and two biopsies from visit 4 (day 28) were imaged by OCT at Visits 2, 3, 5 and 6 as appropriate. Optical coherence tomography OCT (Greaves, N. S., et al., Br J Dermatol, 2014. 170(4): p. 840-50) has proven a useful tool for the evaluation of wound re-epithelialization. OCT uses light to capture sub-micrometre resolution, three-dimensional images from within biological tissue (e.g. skin). The method is based on low-coherence interferometry, typically employing near-infrared light. The use of relatively long wavelength light allows it to penetrate 1-2 mm into the tissue. In addition to wound diameter, collected images capture information on vascularization.\nThe procedure takes approximately 2 minutes using a small probe applied to the skin. The procedure is non-invasive and pain-free. Image files (including enrolment number, visit number and date) were stored on the OCT machine until the end of the trial, then transferred to a secure server, compiled, analysed and values for wound diameter entered into the case report form (CRF).\nThe initial wounds created by puncture at days 0 and 28, respectively, were 3 mm in diameter. Treatment with AZD4017 (400 mg, twice daily oral) was initiated on day 0 and maintained for 35 days.\nThus administration of AZD4017 […] delivered a significant improvement in the rate of wound healing."}, "MMP7 and TGM2 expression": {"system": "MMP7 and TGM2 expression", "experiment": "Protein profiling (Sciomics) and RNAseq of primary human dermal fibroblasts", "assay_type": "cell-based", "settings": "HDFs, IL-1β+cortisone+AZD4017, n=3", "source_text": "Protein profiling (Sciomics) conducted on primary human dermal fibroblasts (HDF) treated with vehicle, IL-1β, IL-1β+cortisone or IL-1β+cortisone+the selective 11β HSD1 inhibitor AZD4017 (n=3, same HDF as for RNAseq experiments) identified a number of proteins regulated by 11β-HSD1. […] The proteins found to be regulated by 11β-HSD1 include MMP7 and TGM2. […] Regulation of MMP7 by GC has to the best of our knowledge not previously been reported (Velasco, J., et al., J Biol Chem, 2011. 286(29): p. 26016-27)."}, "[1]": {"system": "fibroblasts and endothelial cell co-culture", "experiment": "Angiogenesis co-culture assay with HDF conditioned media (tube length, branch points)", "assay_type": "cell-based, human", "settings": "conditioned media of HDFs treated with IL-1β+200 nM cortisone+1 μM AZD4017, 7 days in culture", "experimental": "In order to further study the effects of AZD4017 on angiogenesis in a quantitative manner, a further related experiment to that described above was performed. In this model in vitro cultured human dermal fibroblasts were treated with a) 10 ng/ml IL-1β, b) IL-1β+100 nM cortisol, c) IL-1β+200 nM cortisone or d) IL-1β+cortisone+1 μM AZD4017 (selective 11β-HSD1 inhibitor)."}, "11β-HSD1 [2]": {"target": "T1, 11β-HSD1 (Homo sapiens, UniProt P28845)", "T1 sequence (P28845 whole entry)": "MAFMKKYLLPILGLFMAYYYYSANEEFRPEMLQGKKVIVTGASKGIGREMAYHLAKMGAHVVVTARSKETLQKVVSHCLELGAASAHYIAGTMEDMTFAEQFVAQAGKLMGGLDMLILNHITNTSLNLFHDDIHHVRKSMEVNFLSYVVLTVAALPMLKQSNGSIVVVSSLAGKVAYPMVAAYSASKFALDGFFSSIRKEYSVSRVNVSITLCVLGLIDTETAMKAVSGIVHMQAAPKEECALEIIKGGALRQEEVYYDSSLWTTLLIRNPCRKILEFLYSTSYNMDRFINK", "settings": "abdominally obese healthy adult male volunteers, daily oral dosing", "experimental": "In more detail, a Phase I study using AZD4017 in abdominally obese healthy adult male volunteers involved an assessment of 11β-HSD1 inhibition in human adipose tissue as a function of time following daily oral dosing of the inhibitor (11β-HSD1 activity was assessed by an assay measuring the conversion of cortisone to cortisol in adipose tissue samples). […] Tachyphylaxis was also investigated with an additional AstraZeneca 11β-HSD1 inhibitor, AZD8329, from a different chemical series (see Morentin Gutierrez et al, Br J Pharmacol […], 172, 4806-16).\nFIG. 1: Conversion of ^3H cortisone [20 nM] to ^3H cortisol (%/100 mg adipose tissue) after repeated dosing of AZD4017."}, "11β-HSD1 [3]": {"target": "T1, 11β-HSD1", "settings": "cited from earlier work"}, "HUVEC tubule formation": {"system": "HUVEC tubule formation", "experiment": "HUVEC tubule formation, in vitro model of angiogenesis", "assay_type": "cell-based, human", "settings": "IL-1β 10 ng/ml; cortisone 200 nM; AZD4017 1 μM with cortisone; biological n=1"}, "11β-HSD1 [4]": {"target": "T1, 11β-HSD1", "experiment": "11β-HSD1 activity (conversion of cortisone to cortisol) in primary human dermal fibroblasts", "assay_type": "cell-based", "set-up": "from tissue; host or cells: adipose tissue of abdominally obese healthy adult male volunteers", "settings": "1 μM, over 18 h, HDFs pretreated with IL-1β and cortisol", "experimental": "FIG. 5: 11β-HSD1 activity in primary human dermal fibroblasts.\nIn order to investigate the effects, prevalence and relevance of 11β-HSD1 in human skin and diabetic wound healing the effects of the proinflammatory cytokine, IL-1β on human dermal fibroblasts (HDFs) in culture was assessed in the preclinical setting. […] In these experiments RU486 (mifepristone) was used as a competitive cortisol antagonist."}},
  "data": [
    {"smiles": "CCCSc1nc(N2CCC[C@@H](CC(=O)O)C2)ccc1C(=O)NC1CCCCC1", "note": "[AZD4017, (S)-2-(1-(5-(cyclohexylcarbamoyl)-6-(propylthio)pyridin-2-yl)piperidin-3-yl)acetic acid]", "values": [
      {"measurement": "mean wound gap diameter", "setting": "skin wounds; day 2, 3 mm wound inflicted at day 0, 400 mg twice daily oral from day 0", "result": 0.98, "unit": "mm"},
      {"measurement": "improvement in the extent of healing relative to placebo arm", "setting": "skin wounds; day 2, wound inflicted at day 0", "result": 35, "unit": "%"},
      {"measurement": "mean wound gap", "setting": "skin wounds; day 30, 3 mm wound inflicted at day 28, after 4 weeks pretreatment", "result": 0.67, "unit": "mm"},
      {"measurement": "improvement in the extent of healing relative to placebo arm", "setting": "skin wounds; day 30, wound inflicted at day 28", "result": 55, "unit": "%"},
      {"measurement": "MMP7 protein and gene expression", "setting": "MMP7 and TGM2 expression", "result": "downregulated MMP7"},
      {"measurement": "TGM2 protein and gene expression", "setting": "MMP7 and TGM2 expression", "result": "stimulate TGM2 protein and gene expression"},
      {"measurement": "IL-1β stimulated tube formation (tube length, number of branch points)", "setting": "[1]", "result": "decreased the negative effects of cortisone/cortisol"},
      {"measurement": "11β-HSD1 activity in adipose tissue relative to baseline", "setting": "11β-HSD1 [2]; day 1", "result": "reduced 11β-HSD1 activity relative to baseline"},
      {"measurement": "net 11β-HSD1 activity in adipose tissue post-dose versus baseline level on day 0", "setting": "11β-HSD1 [2]; day 9 post dose", "result": "still greater than the baseline level on day 0"},
      {"measurement": "cortisol levels in the adipose tissues", "setting": "11β-HSD1 [3]; after 9 days dosing, versus before dosing", "result": "higher than those measured before dosing commenced"},
      {"measurement": "inhibition of 11β-HSD1 activity in adipose tissue", "setting": "11β-HSD1 [3]; after 9 days of treatment, as quoted from Freude", "result": "not observed after 9 days of treatment"},
      {"measurement": "inhibition of 11β-HSD1 activity in adipose tissue vs baseline", "setting": "11β-HSD1 [3]; after single doses, as quoted from Freude", "result": 50, "unit": "%"},
      {"measurement": "tubule formation", "setting": "HUVEC tubule formation", "result": "the same IL-1β stimulated tubule formation as observed in the absence of cortisone"},
      {"measurement": "effect on 11β-HSD1 enzyme activity and production of F (cortisol)", "setting": "11β-HSD1 [4]", "result": "completely blocked the enzyme activity"}
    ]}
  ]
}
